The values that follow come from patent US8507536B2, “Gonadotropin-releasing hormone receptor antagonists and methods relating thereto” (Neurocrine Biosciences, Inc., priority 2007, dated 2013).

The assay addresses T1, human GnRH receptor (Homo sapiens, UniProt P30968).
T1 construct: expressed in transfected cells; membrane preparations
T1 sequence (P30968 1-328): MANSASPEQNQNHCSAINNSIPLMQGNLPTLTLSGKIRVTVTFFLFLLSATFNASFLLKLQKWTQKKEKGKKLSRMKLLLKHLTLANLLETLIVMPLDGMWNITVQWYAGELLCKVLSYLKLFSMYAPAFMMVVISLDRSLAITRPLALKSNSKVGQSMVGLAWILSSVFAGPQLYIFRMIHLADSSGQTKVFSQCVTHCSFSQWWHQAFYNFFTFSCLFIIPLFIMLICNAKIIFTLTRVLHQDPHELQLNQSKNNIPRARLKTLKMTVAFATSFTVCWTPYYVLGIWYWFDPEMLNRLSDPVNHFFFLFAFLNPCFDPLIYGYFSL
Nature of the assay: peptide competitive human receptor binding assays (radioligand displacement). The following applies: tested in one or more of the peptide competitive human receptor binding assays. The protocol:
HEK293 cells stably transfected with the human GnRH receptor are grown for two days after achieving confluence then are harvested by striking tissue culture flasks against a firm surface. Cells are collected by centrifugation at 1000 g for […]. Cell pellets are resuspended in 5% sucrose and homogenized using a polytron homogenizer for two 15 second homogenization steps. Cell homogenates are then centrifuged for 5 minutes at 3000 g to remove nuclei and the supernatant subsequently centrifuged for 30 minutes at 44,000 g to collect the membrane fraction. The membrane pellet is resuspended in GnRH binding buffer (10 mM HEPES, pH 7.5, 150 mM NaCl and 0.1% BSA) and aliquots immediately snap-frozen in liquid nitrogen and stored at −80° C. Protein content of the membrane suspension is determined using the Bio-Rad protein assay kit (Bio-Rad).
RBL cells stably transfected with the human GnRH receptor are grown to 80% confluency prior to harvesting. The cells are incubated at 37° C. for 10 min in 0.5 mM EDTA/PBS (Ca^++, Mg^++ free), and are dislodged from the plate by gentle rapping of the flasks. Cells are collected and pelleted by centrifugation at 1000 g for 5 minutes. Cell pellets are resuspended in buffer (DPBS supplemented with 10 mM MgCl2, 2 mM EGTA, pH=7.4), and cell lysis is performed using a pressure cell and applying N2 at a pressure of 900 psi for 30 min at 4° C. Unbroken cells and larger debris were removed by centrifugation at 1200 g for 10 min at 4° C. The cell membrane supernatant is then centrifuged at 45,000 g and the resulting membrane pellet is resuspended in assay buffer and homogenized on ice using a tissue homogenizer. Protein concentrations are determined using the Coomassie Plus Protein Reagent kit. Membranes are aliquoted and stored at −80° C. until ready for use.
Radioligand binding displacement assays using the peptide radioligands are performed in buffer containing 10 mM HEPES, 150 mM NaCl and 0.1% BSA, pH=7.5. Radioligand binding assays employing the use of [^3H]-1-(2,6-difluorobenzyl)-3-[(2R)-amino-2-phenethyl]-5-(2-fluoro-3-methoxyphenyl)-6-methyluracil (here the 3-methoxy group is tritiated) are run in buffer containing 50 mM Tris, 150 mM NaCl, 5 mM MgCl2, 0.01% saponin and 0.5 mM EDTA, pH=7.5. Radioligand displacement assays are performed by incubating radioligand ([^125I-Tyr^5, DLeu^6, NMeLeu^7, Pro^9-NEt]GnRH (0.1 nM), [His^5, ^125I-DTyr^6]GnRH (0.2 nM) (31) or [^3H]-1-(2,6-difluorobenzyl)-3-[(2R)-amino-2-phenethyl]-5-(2-fluoro-3-methoxyphenyl)-6-methyluracil (1 nM)), unlabeled competitors at concentrations ranging from 0.3 pM to 10 μM, and membranes for 2 hrs at rt. 10 to 20 μg protein/well is used from membrane preparations for human, monkey and rabbit GnRH receptor. 5 μg/well and 60 μg/well of membranes are used for rat and dog GnRH receptors, respectively. Binding assays are performed in either Millipore 96-well GF/C filtration plates (for ([^125I-Tyr^5, DLeu^6, NMeLeu^7, Pro^9-NEt]GnRH assays), or in 96 well low binding plates, which are subsequently filtered onto GF/C Unifilters. Filters are pretreated with 0.5% PEI for 30 min prior to use. Reactions are terminated by rapid vacuum filtration, and the filters are washed twice with 250 μL ice cold PBS pH=7.4 (0.01% Tween-20 is included in wash media for [His^5, ^125I-DTyr^6]GnRH and [^3H]-1-(2,6-difluorobenzyl)-3-[(2R)-amino-2-phenethyl]-5-(2-fluoro-3-methoxyphenyl)-6-methyluracil radioligands). The filters are dried, and the Millipore filters are monitored for radioactivity using a Cobra II gamma counter (Perkin Elmer Life Sciences). For assays filtered onto the GF/C Unifilter plates, 50 μL scintillation fluid is added to each filter, and radioactivity is monitored using a TopCount NXT. For iodinated radioligands, total radioligand is monitored on a gamma counter, and for the tritiated radioligand, total radioligand is monitored using a Perkin Elmer 1600TR liquid scintillation counter. […]

Bounds are passed on as bounds.

Take `COc1cc(Cl)c(-c2cnc(C(F)(F)F)cc2C#N)cc1S(=O)(=O)N(C)c1ccc(F)cc1` [Example 15-6]: the Ki was at most 100 nM.
In turn, `CC1(C)CCN(S(=O)(=O)c2cc(-c3cnc(C(F)(F)F)cc3C#N)c(Cl)cc2OCCCC(=O)O)c2ccccc21` [Example 12-1, 4-[5-chloro-4-(4-cyano-6-trifluoromethyl-pyridin-3-yl)-2-(4,4-dimethyl-3,4-dihydro-2H-quinoline-1-sulfonyl)-phenoxy]-butyric acid] displayed a Ki of at most 100 nM.
`Cc1cc(Cl)ncc1-c1cc(S(=O)(=O)N2CCCc3ccccc32)ccc1Cl` [Example 4-3] gave a Ki of at most 100 nM.
Compound `N#Cc1cc(C(F)(F)F)ncc1-c1cc(S(=O)(=O)N2CCOc3ccccc32)ccc1Cl` [Example 4-15] registered a Ki of at most 100 nM.
For `Cc1cc(Cl)c(-c2cc(S(=O)(=O)N3CCCc4ccccc43)ccc2Cl)cn1` [Example 4-8], the Ki is at most 100 nM.
With `COc1cc(Cl)c(-c2cnc(C(F)(F)F)cc2C#N)cc1S(=O)(=O)N(C)c1ncccc1C` [Example 15-19], the Ki is at most 100 nM.
`N#Cc1cc(C(F)(F)F)ncc1-c1cc(S(=O)(=O)N2CCCCc3ccccc32)c(OCC(=O)O)cc1Cl` [Example 7-5] had a Ki of at most 100 nM.
In turn, `COc1cc(Cl)c(-c2cnc(C(F)(F)F)cc2C#N)cc1S(=O)(=O)N1CCC(C)(C)c2ccccc21` [Example 15-2] showed a Ki of at most 100 nM.
Consider `CN(c1ccccn1)S(=O)(=O)c1cc(-c2cnc(C(F)(F)F)cc2C#N)c(Cl)cc1OCCC(=O)O` [Example 18-2, 3-[5-chloro-4-(4-cyano-6-trifluoromethyl-pyridin-3-yl)-2-(methyl-pyridin-2-yl-sulfamoyl)-phenoxy]-propionic acid], for which the Ki was at most 100 nM.
For the compound `Cc1cc(C#N)ncc1-c1cc(S(=O)(=O)N2CCCCc3ccccc32)c(OCCCC(=O)O)cc1Cl` [Example 7-3], the Ki is at most 100 nM.
`Cc1cccc2c1N(S(=O)(=O)c1ccc(Cl)c(-c3cnc(C(F)(F)F)cc3C#N)c1)CCCO2` [Example 4-20] gave a Ki of at most 100 nM.
Under `CC1(C)CCN(S(=O)(=O)c2cc(-c3cnc(C(F)(F)F)cc3C#N)c(Cl)cc2OCCO)c2ccccc21` [Example 11-2, 5-[2-chloro-5-(4,4-dimethyl-3,4-dihydro-2H-quinoline-1-sulfonyl)-4-(2-hydroxy-ethoxy)-phenyl]-2-trifluoromethyl-isonicotinonitrile] stands at most 100 nM; under `COc1cccc(N(C)S(=O)(=O)c2cc(-c3cnc(C(F)(F)F)cc3C#N)c(Cl)cc2OC)c1` [Example 15-14], at most 100 nM.
